{"source": "patent US8933074B2", "about": "“1,2-disubstituted heterocyclic compounds” (FORUM Pharmaceuticals Inc., priority 2008, dated 2015)"}
{"target": "Human PDE10A1 (Homo sapiens, UniProt Q9Y233)", "sequence (Q9Y233 1-779 isoform Q9Y233-1)": "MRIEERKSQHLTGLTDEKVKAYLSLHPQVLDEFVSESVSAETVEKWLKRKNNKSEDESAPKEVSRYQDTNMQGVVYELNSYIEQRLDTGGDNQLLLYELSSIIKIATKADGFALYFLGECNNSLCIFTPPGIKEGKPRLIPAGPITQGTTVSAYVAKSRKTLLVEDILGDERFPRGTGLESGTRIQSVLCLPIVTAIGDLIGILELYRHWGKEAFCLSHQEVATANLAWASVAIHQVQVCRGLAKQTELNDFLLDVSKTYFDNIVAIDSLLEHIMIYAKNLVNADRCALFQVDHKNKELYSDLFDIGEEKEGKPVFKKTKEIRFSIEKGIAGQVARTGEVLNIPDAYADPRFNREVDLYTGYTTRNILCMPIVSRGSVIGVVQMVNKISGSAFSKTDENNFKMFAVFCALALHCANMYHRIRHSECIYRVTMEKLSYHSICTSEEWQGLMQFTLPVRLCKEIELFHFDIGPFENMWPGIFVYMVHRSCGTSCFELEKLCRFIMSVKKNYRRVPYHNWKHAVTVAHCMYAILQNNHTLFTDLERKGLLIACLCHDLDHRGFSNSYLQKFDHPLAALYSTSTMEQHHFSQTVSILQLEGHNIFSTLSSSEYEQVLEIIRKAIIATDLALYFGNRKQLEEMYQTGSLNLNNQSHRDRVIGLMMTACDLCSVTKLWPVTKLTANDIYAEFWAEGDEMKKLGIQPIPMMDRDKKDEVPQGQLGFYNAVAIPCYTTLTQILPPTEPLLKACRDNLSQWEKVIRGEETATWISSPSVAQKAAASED", "assay": "hPDE10A1 enzyme inhibition", "format": "biochemical", "conditions": "[3H]-cAMP substrate, 20 minutes at 37° C.; read-out: hPDE10A1 IC50 Band", "protocol": "50 μl samples of serially diluted Human PDE10A1 enzyme were incubated with 50 μl of [^3H]-cAMP for 20 minutes (at 37° C.). Reactions were carried out in Greiner 96 deep well 1 ml master-block. The enzyme was diluted in 20 mM Tris HCl pH7.4 and [^3H]-cAMP was diluted in 10 mM MgCl2, 40 mM Tris.HCl pH 7.4. The reaction was terminated by denaturing the PDE enzyme (at 70° C.) after which [^3H]-5′-AMP was converted to [^3H]-adenosine by adding 25 μl snake venom nucleotidase and incubating for 10 minutes (at 37° C.). Adenosine, being neutral, was separated from charged cAMP or AMP by the addition of 200 μl Dowex resin. Samples were shaken for 20 minutes then centrifuged for 3 minutes at 2,500 r.p.m. 50 μl of supernatant was removed and added to 200 μl of MicroScint-20 in white plates (Greiner 96-well Optiplate) and shaken for 30 minutes before reading on Perkin Elmer TopCount Scintillation Counter.\nTo check inhibition profile 11 μl of serially diluted inhibitor was added to 50 μl of [^3H]-cAMP and 50 ul of diluted Human PDE10A1 and assay was carried out as in the enzyme activity assay. Data was analysed using Prism software (GraphPad Inc).", "units": {"IC50": "nM"}}
{"smiles": "CC1(C)OC(c2ccc(C#N)cc2)=C(c2ccc(OCc3ccc4ccccc4n3)cc2)C1=O", "note": "[Example 141, 4-(5,5-Dimethyl-4-oxo-3-(4-(quinolin-2-ylmethoxy)phenyl)-4,5-dihydrofuran-2-yl)benzonitrile]", "IC50": "≤ 50"}
{"smiles": "CC1(C)OC(c2ccc(OCC(F)(F)F)cc2)=C(c2ccc(OCc3ccc4ccccc4n3)cc2)C1=O", "note": "[Example 162, 2,2-dimethyl-4-(4-(quinolin-2-ylmethoxy)phenyl)-5-(4-(2,2,2-trifluoroethoxy)phenyl)furan-3(2H)-one]", "IC50": "≤ 50"}
{"smiles": "CC1(C)OC(c2ccccc2)=C(c2ccc(OCc3ccc4ccccc4n3)cc2)C1=O", "note": "[Example 811, 2,2-dimethyl-5-phenyl-4-(4-(quinolin-2-ylmethoxy)phenyl)furan-3(2H)-one]", "IC50": "≤ 50"}
{"smiles": "CC1(C)OC(c2ccc(OCC3CC3)cc2)=C(c2ccc(OCc3ccc4ccccc4n3)cc2)C1=O", "note": "[Example 161, 5-(4-(cyclopropylmethoxy)phenyl)-2,2-dimethyl-4-(4-(quinolin-2-ylmethoxy)phenyl)furan-3(2H)-one]", "IC50": "> 50"}
{"smiles": "CC1(C)OC(c2ccncc2)=C(c2ccc(OCc3ccc4ccccc4n3)cc2)C1=O", "note": "[Example 125, 2,2-dimethyl-5-(pyridin-4-yl)-4-(4-(quinolin-2-ylmethoxy)phenyl) furan-3(2H)-one]", "IC50": "≤ 50"}
{"smiles": "CC1(C)OC(c2ccc(O)cc2)=C(c2ccc(OCc3ccc4ccccc4n3)cc2)C1=O", "note": "[Example 813, 5-(4-hydroxyphenyl)-2,2-dimethyl-4-(4-(quinolin-2-ylmethoxy)phenyl)furan-3(2H)-one]", "IC50": "≤ 50"}
{"smiles": "CC1(C)OC(c2ccc(F)cc2)=C(c2ccc(OCc3ccc4ccccc4n3)cc2)C1=O", "note": "[Example 153, 5-(4-fluorophenyl)-2,2-dimethyl-4-(4-(quinolin-2-ylmethoxy)phenyl)furan-3(2H)-one]", "IC50": "≤ 50"}
{"smiles": "CC1(C)NC(=O)C(c2ccc(OCc3ccc4ccccc4n3)cc2)=C1c1ccncc1", "note": "[Example 63, 5,5-dimethyl-4-(pyridin-4-yl)-3-(4-(quinolin-2-ylmethoxy)phenyl)-1H-pyrrol-2(5H)-one]", "IC50": "≤ 50"}
{"smiles": "Cc1ccc(C2=C(c3ccc(OCc4ccc5ccccc5n4)cc3)C(=O)C(C)(C)O2)cc1", "note": "[Example 818, 2,2-dimethyl-4-(4-(quinolin-2-ylmethoxy)phenyl)-5-p-tolylfuran-3(2H)-one]", "IC50": "≤ 50"}
{"smiles": "CN1C(=O)C(c2ccc(OCc3ccc4ccccc4n3)cc2)=C(N2CCC(=O)CC2)C1=O", "note": "[Example 820, 1-Methyl-3-(4-oxopiperidin-1-yl)-4-(4-(quinolin-2-ylmethoxy)phenyl)-1H-pyrrole-2,5-dione]", "IC50": "> 50"}
{"smiles": "CC1(C)OC(c2ccc(OCc3ccc4ccccc4n3)cc2)=C(c2ccncc2)C1=O", "note": "[Example 249, 2,2-dimethyl-4-(pyridin-4-yl)-5-(4-(quinolin-2-ylmethoxy)phenyl) furan-3(2H)-one]", "IC50": "≤ 50"}
{"smiles": "CC1(C)OC(c2ccc3nonc3c2)=C(c2ccc(OCc3ccc4ccccc4n3)cc2)C1=O", "note": "[Example 166, 5-(Benzo[c][1,2,5]oxadiazol-5-yl)-2,2-dimethyl-4-(4-(quinolin-2-ylmethoxy)phenyl)furan-3(2H)-one]", "IC50": "≤ 50"}
{"smiles": "COc1ccc(C2=C(c3ccc(OCc4ccc5ccccc5n4)cc3)C(=O)NC2(C)C)cc1", "note": "[Example 823, 4-(4-methoxyphenyl)-5,5-dimethyl-3-(4-(quinolin-2-ylmethoxy)phenyl)-1H-pyrrol-2(5H)-one]", "IC50": "≤ 50"}
{"smiles": "CC1(C)OC(c2cscn2)=C(c2ccc(OCc3ccc4ccccc4n3)cc2)C1=O", "note": "[Example 174, 2,2-dimethyl-4-(4-(quinolin-2-ylmethoxy)phenyl)-5-(thiazol-4-yl)furan-3(2H)-one]", "IC50": "≤ 50"}
{"smiles": "COc1cc(C2=C(c3ccc(OCc4ccc5ccccc5n4)cc3)C(=O)C(C)(C)O2)ccn1", "note": "[Example 131, 5-(2-methoxypyridin-4-yl)-2,2-dimethyl-4-(4-(quinolin-2-ylmethoxy)phenyl)furan-3(2H)-one]", "IC50": "≤ 50"}
{"smiles": "CC1(C)OC(c2ccc(C(F)(F)F)cc2)=C(c2ccc(OCc3ccc4ccccc4n3)cc2)C1=O", "note": "[Example 154, 2,2-dimethyl-4-(4-(quinolin-2-ylmethoxy)phenyl)-5-(4-(trifluoromethyl)phenyl)furan-3(2H)-one]", "IC50": "≤ 50"}
{"smiles": "COc1ccc(C2=C(c3ccc(OCc4ccc5ccccc5n4)cc3)C(=O)C(C)(C)O2)cn1", "note": "[Example 133, 5-(6-methoxypyridin-3-yl)-2,2-dimethyl-4-(4-(quinolin-2-ylmethoxy)phenyl)furan-3(2H)-one]", "IC50": "≤ 50"}
{"smiles": "Cc1cnc(COc2ccc(C3=C(c4ccncc4)OC(C)(C)C3=O)cc2)c(C)c1", "note": "[Example 809, 4-(4-((3,5-Dimethylpyridin-2-yl)methoxy)phenyl)-2,2-dimethyl-5-(pyridin-4-yl) furan-3(2H)-one]", "IC50": "≤ 50"}
{"smiles": "CC1(C)OC(c2ccc(OC(F)F)c(C#N)c2)=C(c2ccc(OCc3ccc4ccccc4n3)cc2)C1=O", "note": "[Example 169, 2-(difluoromethoxy)-5-(5,5-dimethyl-4-oxo-3-(4-(quinolin-2-ylmethoxy)phenyl)-4,5-dihydrofuran-2-yl)benzonitrile]", "IC50": "≤ 50"}
{"smiles": "CC1(C)OC(c2ccc(CC(F)(F)F)cc2)=C(c2ccc(OCc3ccc4ccccc4n3)cc2)C1=O", "note": "[Example 156, 2,2-dimethyl-4-(4-(quinolin-2-ylmethoxy)phenyl)-5-(4-(2,2,2-trifluoroethyl)phenyl)furan-3(2H)-one]", "IC50": "≤ 50"}
{"smiles": "CCOc1ccc(C2=C(c3ccc(OCc4ccc5ccccc5n4)cc3)C(=O)C(C)(C)O2)cc1", "note": "[Example 157, 5-(4-ethoxyphenyl)-2,2-dimethyl-4-(4-(quinolin-2-ylmethoxy)phenyl)furan-3(2H)-one]", "IC50": "≤ 50"}
{"smiles": "O=C1OC2(CC2)C(c2ccncc2)=C1c1ccc(OCc2ccc3ccccc3n2)cc1", "note": "[Example 26, 7-(Pyridin-4-yl)-6-(4-(quinolin-2-ylmethoxy)phenyl)-4-oxaspiro[2.4]hept-6-en-5-one]", "IC50": "> 50"}
{"smiles": "COc1ccc(C2=C(c3ccc(OCc4ccc5ccccc5n4)cc3)C(=O)C(C)(C)O2)cc1", "note": "[Example 138, 5-(4-Methoxyphenyl)-2,2-dimethyl-4-(4-(quinolin-2-ylmethoxy)phenyl) furan-3(2H)-one]", "IC50": "≤ 50"}
{"smiles": "COc1ccc(-c2c(-c3ccc(OCc4ccc5ccccc5n4)cc3)n(C)c(=O)n2C)cc1", "note": "[Example 822, 4-(4-Methoxyphenyl)-1,3-dimethyl-5-(4-(quinolin-2-ylmethoxy)phenyl)-1H-imidazol-2(3H)-one]", "IC50": "> 50"}
{"smiles": "CC1(C)OC(c2ccc([N+](=O)[O-])cc2)=C(c2ccc(OCc3ccc4ccccc4n3)cc2)C1=O", "note": "[Example 164, 2,2-Dimethyl-5-(4-nitrophenyl)-4-(4-(quinolin-2-ylmethoxy)phenyl) furan-3(2H)-one]", "IC50": "≤ 50"}
{"smiles": "CC1(C)OC(c2ccncn2)=C(c2ccc(OCc3ccc4ccccc4n3)cc2)C1=O", "note": "[Example 127, 2,2-dimethyl-5-(pyrimidin-4-yl)-4-(4-(quinolin-2-ylmethoxy)phenyl)furan-3(2H)-one]", "IC50": "> 50"}
{"smiles": "COc1ccc(C2=C(c3ccc(OCc4ccc5ccccc5n4)cc3)OC(C)(C)C2=O)cc1", "note": "[Example 262, 4-(4-methoxyphenyl)-2,2-dimethyl-5-(4-(quinolin-2-ylmethoxy)phenyl)furan-3(2H)-one]", "IC50": "≤ 50"}
{"smiles": "CC1(C)OC(=O)C(c2ccc(OCc3ccc4ccccc4n3)cc2)=C1c1ccncc1", "note": "[Example 23, 5,5-dimethyl-4-(pyridin-4-yl)-3-(4-(quinolin-2-ylmethoxy)phenyl)furan-2(5H)-one]", "IC50": "≤ 50"}
